What was measured:
[1] = test system: Magnaporthe Guy11 on detached barley leaf; type: in vivo, Magnaporthe grisea; conditions: 200 μM
Zebra fish larvae heart = type: in vivo, Danio rerio; conditions: at 26 (h of treatment); control 12.71
wild-type S. pombe [2] = type: cell-based, Schizosaccharomyces pombe
[3] = test system: S. pombe strain expressing M. grisea Abc3 (MBY 2838); type: cell-based, Schizosaccharomyces pombe; conditions: MBY 2838, compound in growth medium
[4] = test system: rice or barley leaf tissue; type: in vivo
wild-type S. pombe [5] = test: Estimation of minimum inhibitory concentration for S. pombe; type: cell-based, Schizosaccharomyces pombe; conditions: different concentrations, 6 h incubation
Experimental: Approximately, 1×10^7 cells/ml from overnight grown culture of MBY 104 was inoculated in 20 ml fresh YES medium in 250 ml flasks. The cells were incubated at 25° C. on a shaker in absence or presence of different concentrations of digoxin. A stock of 1 mM standard glycosides (Sigma Aldrich, USA) was prepared by adding 7.8 mg, 3.9 mg, and 7.28 mg of digoxin, digoxigenin, and ouabain, respectively, in 10 ml of 50% ethanol. A working stock of 200 μM solution was prepared by diluting 1 mM stock with fresh YES medium. Further dilutions were made from this working stock by adjusting total volume with YES to 20 ml. Cell density of untreated or treated wild-type yeast cells was checked in terms of absorbance after every one hour over 5 to 6 generations. Experiments were performed in duplicate each time and confirmed by several biological replicates.
Wild-type S. pombe cells were grown in absence or presence of different concentrations of digoxin, digoxigenin, or ouabain and growth kinetics was studied over 6-8 h.

[6] = test system: wild-type M. grisea Guy11 on rice leaf sheath or onion epidermis; type: in vivo, Magnaporthe grisea; conditions: summary statement

C[C@H]1O[C@@H](O[C@H]2[C@@H](O)C[C@H](O[C@H]3[C@@H](O)C[C@H](O[C@H]4CC[C@@]5(C)[C@H](CC[C@@H]6[C@@H]5C[C@@H](O)[C@]5(C)[C@@H](C7=CC(=O)OC7)CC[C@]65O)C4)O[C@@H]3C)O[C@@H]2C)C[C@H](O)[C@@H]1O [digoxin]
disease symptoms on detached barley leaf ([1]; controls symptomatic from day 3): failed to elicit any disease symptoms | disease symptoms, leaves inoculated with 100 conidia per droplet ([1]; 6 dpi, 100 conidia per droplet): did not show any symptoms | severity of disease compared to control leaves ([1]; day 6 post inoculation): significantly reduced | heart rate (time taken for 20 beats) (Zebra fish larvae heart): 13.79 s | cell density (OD600 nm) of S. pombe, growth kinetics (wild-type S. pombe [2]): inhibitory effects | effect on S. pombe cells expressing M. grisea Abc3p [3]: did not show any effects | elicitor-like response in the host plants ([4]; exogenous application to leaf tissue): induced hypersensitive reaction | H2O2 level as Cerium perhydroxide precipitate (CeCl3 staining, TEM) ([4]; treated leaf tissue, 48 h): accumulation of Cerium perhydroxide precipitate in the cell wall and cell membrane | state of host cells upon treatment ([4]; treated leaf tissue, TEM): plasmolysis | absorbance of treated S. pombe cells (wild-type S. pombe [5]): decrease in absorbance in a dose dependent manner | appressorial function of host penetration [6]: blocked appressorial function of host penetration

Reference: US8389027B2 (priority 2008, dated 2013)
